{
  "source": "patent US20100247461A1",
  "about": "“ANTI-INFLAMMATORY COMPLEXES” (Signum Biosciences, Inc., priority 2009, published 2010)",
  "assay_type_in_all_cases": "in vivo",
  "key": {"[1]": {"test_system": "mouse skin reepithelialization", "assay": "Mouse wound healing model - skin reepithelialization", "source_text": "The healing of wounded skin is mediated by epidermal reepithelialization that requires keratinocyte migration. Glucocorticoids are known to inhibit wound healing (Ehrlich et al., Proc Soc Exp Biol Med, 1971, 137: 936-938; Leibovich et al., Am J Pathol, 1975, 78, 71-100). […] The methods for studying mouse skin reepithelialization using both partial and full thickness mouse wound healing models have been described elsewhere (Kim et al. Wound Repair Regen, 2001, 9: 386-390). In brief, for partial thickness wounds, a 3 mm-diameter circle of epidermis is removed from the ventral auricle. The resulting wound is cleansed and dressed with an occlusive polyurethane film. The mouse ears are excised on days 3, 5, 8, and 11 post-operation and fixed in 10% buffered formalin. Following day 8 post-operation, sampling of treated mice is performed to determine completion of healing. For full thickness wounds, mice heads are shaved and depilated prior to excising the skin. The cleaned and dressed wounds are harvested and fixed at days 3, 5, 8 and 10 and fixed in 10% buffered formalin."}, "[2]": {"test_system": "MPO (myeloperoxidase), neutrophil marker", "assay": "TPA mouse ear model of inflammation - MPO inhibition (dermal neutrophil infiltration)", "details": "TPA-treated mouse ear", "method": "Briefly, we homogenized 6mm biopsy punches taken from both compound-treated ears as well as TPA-treated and non-treated control groups. We quantitated the levels of MPO by a colorimetric reaction that was measured spectrophotometrically. The percent inhibition of neutrophil infiltration by each complex was determined by comparing the average MPO levels in the presence and absence of these compounds. The calculation for percent inhibition of MPO was determined similar to that as described for calculating the percent edema inhibition, see the Edema Inhibition protocol, supra."}, "[3]": {"test_system": "TPA-treated mouse ears (edema, ear thickness)", "assay": "TPA mouse ear model of inflammation - edema inhibition", "details": "TPA-treated mouse ear", "method": "In brief, mice were sedated and their ears were treated with 1.2 μg/20 uL TPA (i.e., tetradecanoylphorbol-13-acetate). After 5 minutes, we dosed these TPA-treated ears with a single 8 μg/20 μL dose, a 2 μg/20 μL dose, or both doses, of provided complexes. After 24 hours, the mice were sacrificed and edema was measured by taking micrometer readings of each ear. […] These values were corrected for the thickness of normal, non TPA-treated mouse ears of littermate controls."}, "[4]": {"test_system": "MPO activity (neutrophil infiltration) in P. acnes-injected ear", "assay": "P. acnes-induced mouse ear model of inflammation - MPO endpoint", "details": "dose of 0.4 mg/20 μL", "method": "The methods for a model of P. acnes-inflammation are described elsewhere (Nakatsuji et al., J Invest Dermatol, 2008, 128: 2451-2457).\nThe protocol for inducing inflammation using P. acnes bacterial challenge on the mouse ear was slightly modified from the method described previously (Natatsuji et al., 2008). Briefly, Swiss Webster (ICR, 6-8 weeks old) mouse ears were injected with living P. acnes culture intradermally. An amount of 20 μl aliquots of living P. acnes (ATCC 6919, 3×10^6 CFU) suspended in PBS was intradermally injected in the central portion of the ear. As a control, 20 μl of PBS was injected into control animals.\nTo assay for inhibition of dermal neutrophil infiltration by AFC complexes, a standard method was used (see Bradley et al., J Invest Dermatol, 1982,78: 206-209; Young et al., J Invest Dermatol, 1983, 80: 48-52; De Young et al, Agents Actions, 1989, 26: 335-41; and Rao et al., Inflammation, 1993, 17: 723-41). Briefly, 6mm biopsy punches taken from both compound-treated ears as well as non-treated control ears were homogenized in 400 μl of 0.5% hexadecyltrimethylammonium bromide in 50 mM potassium phosphate buffer (pH 6.0) using the Fast Prep 24 (MP Biomedicals, Solon, Ohio). Supernatants were assayed for MPO activity using a model EL 340 96-well plate reader (BioTek Instruments, Winooski, Vt.). The percent inhibition of neutrophil infiltration by each AFC complex was determined by comparing the average MPO levels in the presence and absence of these compounds. The percent inhibition of MPO was determined by taking the average MPO activity of compound-treated ears and dividing it by the average MPO activity of 12 ears that only received the P. acnes challenge and subtracting that value from 100%. These values were corrected for the MPO activity of normal, non P. acnes-treated mouse ears of littermate controls. Summary of MPO activity ranges determined from an MPO activity assay for dexamethasone (administered at a dose of 1.6 mg/20 μL), clobetasol (administered at a dose of 0.1 mg/20 μL), salicylic acid (administered at a dose of 0.4 mg/20 μL), AFC (administered at a dose of 0.4 mg/20 μL), AFC-Strontium complex (administered at a dose of 0.4 mg/20 μL) and SFC-disodium are presented in Table 4. “+” indicates a range of 0-20%, “++” indicates a range of 20-40%, and “+++” indicates >40% inhibition."}, "[5]": {"details": "at the dose tested, AFC oil n=1, data not shown"}},
  "data": [
    {"smiles": "CC(=O)N[C@@H](CSC/C=C(\\C)CC/C=C(\\C)CCC=C(C)C)C(=O)O", "note": "[AFC, N-acetyl-S-farnesyl-L-cysteine, reference compound]", "values": [
      {"measurement": "effect on mouse skin reepithelialization of wounds", "setting": "[1]", "value": "no effects"},
      {"measurement": "inhibition of neutrophil infiltration", "setting": "[2]; [5]", "value": 55.90, "unit": "%"},
      {"measurement": "ED50 in the MPO assay", "setting": "[2]; several concentrations, inhibitory activity curves", "value": 651, "unit": "μg/ear"},
      {"measurement": "% MPO Inhibition in the Mouse Ear Inflammation Assay (4% concentration)", "setting": "[2]; topical, 4% concentration, 24 hours", "value": "++ (“++” indicates a range of 40-80%)"},
      {"measurement": "ED50 value for inhibiting neutrophil infiltration", "setting": "[2]; topical, listed as AFC oil", "value": 38.8, "unit": "mM"},
      {"measurement": "inhibition of edema", "setting": "[3]; [5]", "value": 56.35, "unit": "%"},
      {"measurement": "ED50 for edema inhibition", "setting": "[3]; topical, listed as AFC oil", "value": 54.8, "unit": "mM"},
      {"measurement": "MPO % Inhibition", "setting": "[4]", "value": "+++ (“+++” indicates >40% inhibition)"}
    ]}
  ]
}
